Test results published in US20220324865A1 (Bayer Aktiengesellschaft, priority 2018, published 2022).

target: T1, human EP3 receptor (Homo sapiens, UniProt P43115); assay: Cellular in vitro assay for determining EP3 receptor activity (human EP3 cell line, sulprostone-stimulated calcium luminescence); assay type: cell-based; conditions: CHO cells expressing human EP3 and mitochondrial Clytin; antagonist mode, sulprostone at EC50; read-out: EP3 CHO mtCLY ANTAG IC50
T1 construct: expressed in transfected cells; host or cells: CHO K1 (Chinese Hamster Ovary), stably co-transfected with Galpha16 and mitochondrial clytin
T1 sequence (P43115 1-390): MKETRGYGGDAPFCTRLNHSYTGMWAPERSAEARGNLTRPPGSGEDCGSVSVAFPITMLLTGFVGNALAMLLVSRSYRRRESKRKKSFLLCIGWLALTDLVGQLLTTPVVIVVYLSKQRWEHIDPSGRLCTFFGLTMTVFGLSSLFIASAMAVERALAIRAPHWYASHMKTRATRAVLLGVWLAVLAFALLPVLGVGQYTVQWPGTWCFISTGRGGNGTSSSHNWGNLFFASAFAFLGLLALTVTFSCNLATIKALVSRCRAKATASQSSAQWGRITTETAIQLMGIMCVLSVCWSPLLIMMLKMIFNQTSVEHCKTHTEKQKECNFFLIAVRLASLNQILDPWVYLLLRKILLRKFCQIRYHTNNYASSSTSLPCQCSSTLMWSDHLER
Summary of the method: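 Antagonist activity was measured as inhibition of the luminescent calcium signal elicited by EC50 sulprostone, following 10 min compound pretreatment. The cell line was recombinant CHO K1 co-expressing human EP3, Gα16 and the photoprotein Clytin, reconstituted with coelenterazine.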

Point of comparison: `Cc1cc(-c2cn3nc(C(=O)N[C@@H](c4ccc(F)cc4)[C@@H](O)C(F)(F)F)c(C4CC4)c3c(=O)[nH]2)ccc1Cl` [6-316], IC50 0.74 nM. Against it:
- Cc1cccc2ncc(-c3cn4nc(C(=O)NC(C)c5ccc(Cl)cc5Cl)c(C(C)C)c4c(=O)[nH]3)cc12 (centres unmarked) [Example 4-82, N-[1-(2,4-Dichlorophenyl)ethyl]-3-isopropyl-6-(5-methyl-3-quinolyl)-4-oxo-5H-pyrazolo[1,5-a]pyrazine-2-carboxamide] — 8.4-fold higher, 6.25 nM
- N#Cc1c(C(=O)NC2Cc3ccccc3C2)nn2cc(-c3ccc4ccccc4c3)[nH]c(=O)c12 [Example 3-55, 3-Cyano-N-(2,3-dihydro-1H-inden-2-yl)-6-(naphthalen-2-yl)-4-oxo-4,5-dihydropyrazolo[1,5-a]pyrazine-2-carboxamide] — 9.7-fold higher, 7.2 nM
- Cc1ccc([C@@H](C)NC(=O)c2nn3cc(-c4ccc5ccccc5c4)[nH]c(=O)c3c2C#N)cc1 [Example 3-53, 3-Cyano-N-[(7R)-1-(4-methylphenyl)ethyl]-6-(naphthalen-2-yl)-4-oxo-4,5-dihydropyrazolo[1,5-a]pyrazine-2-carboxamide] — 2-fold higher, 1.45 nM
- CN(C)C[C@@H](NC(=O)c1cc2c(=O)[nH]c(-c3ccc4c(c3F)OCCO4)cn2n1)c1ccccc1 [Example 1-109, N-[(1S)-2-(Dimethylamino)-1-phenylethyl]-6-(5-fluoro-2,3-dihydro-1,4-benzodioxin-6-yl)-4-oxo-4,5-dihydropyrazolo[1,5-a]pyrazine-2-carboxamide] — 8.1-fold higher, 5.97 nM
- Cc1cccc2ncc(-c3cn4nc(C(=O)NC5(c6ccccc6)CC5)c(C(C)C)c4c(=O)[nH]3)cc12 [Example 4-43, 6-(5-Methylquinolin-3-yl)-4-oxo-N-(1-phenylcyclopropyl)-3-(propan-2-yl)-4,5-dihydropyrazolo[1,5-a]pyrazine-2-carboxamide] — within 1.5-fold, 0.84 nM
- O=C(NCCC(F)(F)F)c1cc2c(=O)[nH]c(-c3ccc4cccc(F)c4c3)cn2n1 [6-41] — 8.1-fold higher, 6.03 nM
- Cc1cc(-c2cn3nc(C(=O)NC4CCN(C5CC5)C4)c(C(F)(F)F)c3c(=O)[nH]2)ccc1Cl (single isomer, unassigned) [6-241] — 13-fold higher, 9.5 nM
- Cc1ccc(-c2cn3nc(C(=O)NC4CCN(CC(F)(F)F)C4)c(C4CC4)c3c(=O)[nH]2)cc1F (single isomer, unassigned) [6-391] — 4.5-fold higher, 3.3 nM
- O=C(N[C@H]1c2ccccc2C[C@@H]1O)c1nn2cc(-c3ccc4ccccc4c3)[nH]c(=O)c2c1C(F)(F)F [Example 1-78, N-[(1S,2S)-2-Hydroxy-2,3-dihydro-1H-inden-1-yl]-6-(naphthalen-2-yl)-4-oxo-3-(trifluoromethyl)-4,5-dihydropyrazolo[1,5-a]pyrazine-2-carboxamide] — within 1.5-fold, 1.06 nM
- Cc1c(C(=O)NC2(c3ccc(Cl)cc3)CCC2)nn2c(C)c(-c3ccc4ccccc4c3)[nH]c(=O)c12 [Example 3-32, N-[1-(4-Chlorophenyl)cyclobutyl]-3,7-dimethyl-6-(naphthalen-2-yl)-4-oxo-4,5-dihydropyrazolo[1,5-a]pyrazine-2-carboxamide] — 7.8-fold higher, 5.8 nM
- Cc1ccc(-c2cn3nc(C(=O)N[C@@H](c4ccccc4)C(C)(C)O)c(C4CC4)c3c(=O)[nH]2)cc1F [6-385] — 1.8-fold higher, 1.3 nM
- CC(C)(O)[C@@H](NC(=O)c1nn2cc(-c3ccc(Cl)c(F)c3)[nH]c(=O)c2c1C1CCC1)c1ccc(F)cc1 [6-572] — 3.8-fold higher, 2.8 nM
- CN1CC(NC(=O)c2nn3cc(-c4ccc(Cl)c(Cl)c4)[nH]c(=O)c3c2C2CC2)(c2ccc(F)cc2)C1 [Example 1-170, 3-Cyclopropyl-6-(3,4-dichlorophenyl)-N-[3-(4-fluorophenyl)-1-methylazetidin-3-yl]-4-oxo-4,5-dihydropyrazolo[1,5-a]pyrazine-2-carboxamide] — 3.4-fold higher, 2.5 nM
- Cc1ccc(-c2cn3nc(C(=O)NC[C@]4(C5CC5)NC(=O)NC4=O)c(C4CC4)c3c(=O)[nH]2)cc1C [6-457] — 6.3-fold higher, 4.65 nM
- Cc1ccc(-c2[nH]c(=O)c3c(C(F)(F)F)c(C(=O)NCCn4ccc(C5CC5)n4)nn3c2C)cc1C [Example 1-130, N-[2-(3-Cyclopropyl-1H-pyrazol-1-yl)ethyl]-6-(3,4-dimethylphenyl)-7-methyl-4-oxo-3-(trifluoromethyl)-4,5-dihydropyrazolo[1,5-a]pyrazine-2-carboxamide] — 3.4-fold higher, 2.55 nM
- CCCN1CC(NC(=O)c2nn3cc(-c4ccc5ccccc5c4)[nH]c(=O)c3c2C(F)(F)F)(c2ccc(F)cc2)C1 [Example 1-127, N-[3-(4-Fluorophenyl)-1-propylazetidin-3-yl]-6-(naphthalen-2-yl)-4-oxo-3-(trifluoromethyl)-4,5-dihydropyrazolo[1,5-a]pyrazine-2-carboxamide] — 2.9-fold higher, 2.15 nM
- COc1ccc(C(C)NC(=O)c2nn3c(C)c(-c4ccc5ccccc5c4)[nH]c(=O)c3c2C)cc1F (centres unmarked) [Example 3-74, N-[1-(3-Fluoro-4-methoxyphenyl)ethyl]-3,7-dimethyl-6-(2-naphthyl)-4-oxo-5H-pyrazolo[1,5-a]pyrazine-2-carboxamide] — 6.5-fold higher, 4.8 nM
- Cc1ccc(-c2cn3nc(C(=O)N[C@H](CCO)c4ccc(F)cc4)c(C4CC4)c3c(=O)[nH]2)cc1C [Example 1-83, 3-Cyclopropyl-6-(3,4-dimethylphenyl)-N-[(1R)-1-(4-fluorophenyl)-3-hydroxpropyl]-4-oxo-4,5-dihydropyrazolo[1,5-a]pyrazine-2-carboxamide] — within 1.5-fold, 0.523 nM
- Cc1cccc2ncc(-c3cn4nc(C(=O)N[C@H](C)c5ccccc5)c(C(C)C)c4c(=O)[nH]3)cc12 [Example 4-27, 6-(5-Methylquinolin-3-yl)-4-oxo-N-[(1R)-1-phenylethyl]-3-(propan-2-yl)-4,5-dihydropyrazolo[1,5-a]pyrazine-2-carboxamide] — 1.6-fold higher, 1.2 nM
- CC(C)(O)[C@@H](NC(=O)c1nn2cc(-c3ccc4ccccc4c3)[nH]c(=O)c2c1C(F)(F)F)c1ccc(F)cc1 [Example 1-19, N-[(1S)-1-(4-Fluorophenyl)-2-hydroxy-2-methylpropyl]-6-(naphthalen-2-yl)-4-oxo-3-(trifluoromethyl)-4,5-dihydropyrazolo[1,5-a]pyrazine-2-carboxamide] — within 1.5-fold, 0.705 nM
- COCc1c(C(=O)N[C@H](CCO)c2ccc(F)cc2)nn2cc(-c3ccc4ccccc4c3)[nH]c(=O)c12 [Example 1-55, N-[(1R)-1-(4-Fluorophenyl)-3-hydroxopyl]-3-(methoxymethyl)-6-(naphthalen-2-yl)-4-oxo-4,5-dihydropyrazolo[1,5-a]pyrazine-2-carboxamide] — 1.5-fold lower, 0.488 nM
- COC[C@H](Cc1ccccc1)NC(=O)c1cc2c(=O)[nH]c(-c3ccc4ccccc4c3)cn2n1 [Example 2-25, N-[(2S)-1-Methoxy-3-phenylpropan-2-yl]-6-(2-naphthyl)-4-oxo-4,5-dihydropyrazolo[1,5-a]pyrazine-2-carboxamide] — 3.9-fold higher, 2.9 nM
- CC(C)C(CNC(=O)c1cc2c(=O)[nH]c(-c3ccc4ccccc4c3)cn2n1)n1cccn1 (centres unmarked) [Example 2-17, N-[3-Methyl-2-(1H-pyrazol-1-yl)butyl]-6-(2-naphthyl)-4-oxo-4,5-dihydropyrazolo[1,5-a]pyrazine-2-carboxamide] — 8.8-fold higher, 6.5 nM
- CC(C)c1c(C(=O)N[C@@H](c2ccc(F)cc2)C(C)(C)O)nn2cc(-c3ccc(Cl)cc3)[nH]c(=O)c12 [6-672] — 2.3-fold higher, 1.7 nM
- Cc1ccc(-c2cn3nc(C(=O)NCC(O)C(F)(F)F)c(C4CC4)c3c(=O)[nH]2)cc1Cl (racemic) [6-258] — within 1.5-fold, 0.82 nM
- CC(C)(C)OC(=O)NCC(NC(=O)c1cc2c(=O)[nH]c(-c3ccc4c(c3)OCCO4)cn2n1)c1ccc(F)cc1 (centres unmarked) [6-43] — 4.3-fold higher, 3.15 nM
- CC(NC(=O)c1cc2c(=O)[nH]c(-c3ccc4cccnc4c3)cn2n1)c1ccc(F)c(F)c1 (centres unmarked) [6-28] — 5.3-fold higher, 3.9 nM
- Cc1cccc2ncc(-c3cn4nc(C(=O)Nc5cccc6ncccc56)c(C(C)C)c4c(=O)[nH]3)cc12 [Example 4-29, 6-(5-Methylquinolin-3-yl)-4-oxo-3-(propan-2-yl)-N-(quinolin-5-yl)-4,5-dihydropyrazolo[1,5-a]pyrazine-2-carboxamide] — 2.2-fold higher, 1.6 nM
- CC(C)(C)OC(=O)N1CC(NC(=O)c2cc3c(=O)[nH]c(-c4ccc5ccccc5c4)cn3n2)(c2ccc(F)cc2)C1 [Example 1-47, tert.-Butyl 3-(4-fluorophenyl)-3-({[6-(naphthalen-2-yl)-4-oxo-4,5-dihydropyrazolo[1,5-a]pyrazin-2-yl]carbonyl}amino)azetidine-1-carboxylate] — 6.3-fold higher, 4.65 nM
- Cc1ccc(-c2cn3nc(C(=O)NC4(c5ccc(F)cc5)CCN(C)C4)cc3c(=O)[nH]2)cc1C (single isomer, unassigned) [6-364] — 8.7-fold higher, 6.45 nM
- Cc1ccc(-c2cn3nc(C(=O)Nc4cccc(O)c4)c(C(F)(F)F)c3c(=O)[nH]2)cc1F [6-144] — 4.7-fold higher, 3.5 nM
- Cc1ccc(-c2cn3nc(C(=O)NC4(C)CCC4)c(C(F)(F)F)c3c(=O)[nH]2)cc1F [6-146] — 14-fold higher, 10 nM
- CN1CC(NC(=O)c2nn3cc(-c4ccc5c(c4)OCCO5)[nH]c(=O)c3c2C2CC2)(c2ccc(F)cc2)C1 [6-467] — 3.2-fold higher, 2.35 nM
- CC(NC(=O)c1cc2c(=O)[nH]c(-c3ccc4ccccc4c3)cn2n1)c1ccccc1 (centres unmarked) [Example 2-1, 6-(2-Naphthyl)-4-oxo-N-(1-phenylethyl)-5H-pyrazolo[1,5-a]pyrazine-2-carboxamide] — 2.8-fold higher, 2.07 nM
